Test: recombinant barcode read abundance after kanamycin selection (control-corrected) (log10(CPM+1)); higher = more efficient recombination; sequences stand for … in AGTGCAGAGAAAATCGGCCAGTTTTCTCTGCCTGCAGTCCGCATGCCGT…AGATTTATGCAGCGGACTGCCTTTCTCCCAAAGTGATAAACCGGACAGTATCATGGACCGGTTTTCCCGGTAATCCGTATTTGCAAGGTTGGTTTCACT; site = the 11-nt target
Method in brief: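 Two replicates per condition were plated: chloramphenicol/ampicillin LB agar for the control, and chloramphenicol/ampicillin/kanamycin with 0.1 mM IPTG for selection. The pooled E. coli screen behind them paired targets with IS621 bridge RNA target-binding loops. Recombination efficiency is expressed from averaged, control-corrected barcode counts per million at recombinant junctions, as log10(CPM+1).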
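Also: IS621 recombinase and bridge RNA in Escherichia coli cells.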

CCGCTTACTTGGGTTCTAACCTGTTGCCT (site CCGCTCGCTAG)
recombinant barcode read abundance (log10): 0.0115

CCGCTTACTTGGGTTCTAACCTGTTGCCT (site CCGCTTACTAG)
recombinant barcode read abundance (log10): 0.0232

CCGGACCCTTGGGTTCTAACCTGTTGCCT (site CCGGACCCTAG)
recombinant barcode read abundance (log10): 1.88

CCGGACCCTTGGGTTCTAACCTGTTGCCT (site GCGGACGCTAG)
recombinant barcode read abundance (log10): 0.232

CCGGAGCCTTGGGTTCTAACCTGTTGCCT (site CCGAAGCCTAG)
recombinant barcode read abundance (log10): 1.42

CCGGAGCCTTGGGTTCTAACCTGTTGCCT (site CCGCAGCCTAG)
recombinant barcode read abundance (log10): 0.271

CCGGAGCCTTGGGTTCTAACCTGTTGCCT (site CCGGAGCCTAG)
recombinant barcode read abundance (log10): 2.41

CCGGAGCCTTGGGTTCTAACCTGTTGCCT (site CCGTAGCCTAG)
recombinant barcode read abundance (log10): 0.413

CCGGGGTCTTGGGTTCTAACCTGTTGCCT (site ACGGGGTCTAG)
recombinant barcode read abundance (log10): 0.789

CCGGGGTCTTGGGTTCTAACCTGTTGCCT (site CCGGGGTCTAG)
recombinant barcode read abundance (log10): 1.76

CCGGGGTCTTGGGTTCTAACCTGTTGCCT (site GCGGGGTCTAG)
recombinant barcode read abundance (log10): 0.0665

CCGGGGTCTTGGGTTCTAACCTGTTGCCT (site TCGGGGTCTAG)
recombinant barcode read abundance (log10): 0.0922

CCGGGTTCTTGGGTTCTAACCTGTTGCCT (site CAGGGTTCTAG)
recombinant barcode read abundance (log10): 0.145

CCGGGTTCTTGGGTTCTAACCTGTTGCCT (site CCGGGTTCTAG)
recombinant barcode read abundance (log10): 1.79

CCGGGTTCTTGGGTTCTAACCTGTTGCCT (site CGGGGTTCTAG)
recombinant barcode read abundance (log10): 0.16

CCGGGTTCTTGGGTTCTAACCTGTTGCCT (site CTGGGTTCTAG)
recombinant barcode read abundance (log10): 0.154

CCGGTCCCTTGGGTTCTAACCTGTTGCAG (site CCGGTCCCTCT)
recombinant barcode read abundance (log10): 2.07

CCGGTCCCTTGGGTTCTAACCTGTTGCAG (site GGACAGTCTAC)
recombinant barcode read abundance (log10): 0.307

CCGTAAACTTGGGTTCTAACCTGTTGCCT (site CCGTAAACTAG)
recombinant barcode read abundance (log10): 0.35

CCGTAAACTTGGGTTCTAACCTGTTGCCT (site CCGTAACCTAG)
recombinant barcode read abundance (log10): 0.0417

CCGTAAACTTGGGTTCTAACCTGTTGCCT (site CCGTAAGCTAG)
recombinant barcode read abundance (log10): 0.418

CCGTAAACTTGGGTTCTAACCTGTTGCCT (site CCGTAATCTAG)
recombinant barcode read abundance (log10): 0.0331

CCGTAACCTTGGGTTCTAACCTGTTGCCT (site CCGTAAACTAG)
recombinant barcode read abundance (log10): 0.149

CCGTAACCTTGGGTTCTAACCTGTTGCCT (site CCGTAACCTAG)
recombinant barcode read abundance (log10): 1.57

CCGTAACCTTGGGTTCTAACCTGTTGCCT (site CCGTAAGCTAG)
recombinant barcode read abundance (log10): 0.00896

CCGTAACCTTGGGTTCTAACCTGTTGCCT (site CCGTAATCTAG)
recombinant barcode read abundance (log10): 0.237

CCGTAATCTTGGGTTCTAACCTGTTGCCT (site CCGTAAACTAG)
recombinant barcode read abundance (log10): 0.0257

CCGTAATCTTGGGTTCTAACCTGTTGCCT (site CCGTAACCTAG)
recombinant barcode read abundance (log10): 0.47

CCGTAATCTTGGGTTCTAACCTGTTGCCT (site CCGTAAGCTAG)
recombinant barcode read abundance (log10): 0.211

CCGTAATCTTGGGTTCTAACCTGTTGCCT (site CCGTAATCTAG)
recombinant barcode read abundance (log10): 0.308

CCGTAGCCTTGGGTTCTAACCTGTTGCCT (site CCGAAGCCTAG)
recombinant barcode read abundance (log10): 0.129

CCGTAGCCTTGGGTTCTAACCTGTTGCCT (site CCGCAGCCTAG)
recombinant barcode read abundance (log10): 0.288

CCGTAGCCTTGGGTTCTAACCTGTTGCCT (site CCGGAGCCTAG)
recombinant barcode read abundance (log10): 0.162

CCGTAGCCTTGGGTTCTAACCTGTTGCCT (site CCGTAGCCTAG)
recombinant barcode read abundance (log10): 1.03

CCGTAGTCTTGGGTTCTAACCTGTTGCCT (site CCGTACTCTAG)
recombinant barcode read abundance (log10): 0.0425

CCGTAGTCTTGGGTTCTAACCTGTTGCCT (site CCGTAGTCTAG)
recombinant barcode read abundance (log10): 0.899

CCGTCAACTTGGGTTCTAACCTGTTGCCT (site CCGTCAACTAG)
recombinant barcode read abundance (log10): 0.226

CCGTCAACTTGGGTTCTAACCTGTTGCCT (site GTACTCTCTCT)
recombinant barcode read abundance (log10): 0.0368

CCGTCATCTTGGGTTCTAACCTGTTGCCT (site CCGTCATCTAG)
recombinant barcode read abundance (log10): 0.108

CCGTCATCTTGGGTTCTAACCTGTTGCCT (site CCGTCGTCTAG)
recombinant barcode read abundance (log10): 0.234

CCGTGCCCTTGGGTTCTAACCTGTTGCCT (site CCGTGCCCTAG)
recombinant barcode read abundance (log10): 0.676

CCGTGCCCTTGGGTTCTAACCTGTTGCCT (site GCGTGCCCTAG)
recombinant barcode read abundance (log10): 0.0432

CCGTGGCCTTGGGTTCTAACCTGTTGCTT (site CCGTGGACTAG)
recombinant barcode read abundance (log10): 0.0169

CCGTGGCCTTGGGTTCTAACCTGTTGCTT (site CCGTGGCCTAA)
recombinant barcode read abundance (log10): 0.176

CCGTGTCCTTGGGTTCTAACCTGTTGCCG (site CCGTGTCCTCG)
recombinant barcode read abundance (log10): 1.32

CCGTGTCCTTGGGTTCTAACCTGTTGCCG (site GCGTGTCCTTG)
recombinant barcode read abundance (log10): 0

CCGTTATCTTGGGTTCTAACCTGTTGCCT (site CCGATATCTAG)
recombinant barcode read abundance (log10): 0.0227

CCGTTATCTTGGGTTCTAACCTGTTGCCT (site CCGCTATCTAG)
recombinant barcode read abundance (log10): 0

CCGTTATCTTGGGTTCTAACCTGTTGCCT (site CCGGTATCTAG)
recombinant barcode read abundance (log10): 0.0837

CCGTTATCTTGGGTTCTAACCTGTTGCCT (site CCGTTATCTAG)
recombinant barcode read abundance (log10): 0.0274

CCTAACGCTTGGGTTCTAACCTGTTGCCT (site CCTAACGCTAG)
recombinant barcode read abundance (log10): 0.625

CCTAACGCTTGGGTTCTAACCTGTTGCCT (site CCTCGCGCTAG)
recombinant barcode read abundance (log10): 0.0688

CCTAAGACTTGGGTTCTAACCTGTTGCCC (site CCTAAGACTAG)
recombinant barcode read abundance (log10): 0.23

CCTAAGACTTGGGTTCTAACCTGTTGCCC (site CCTAAGACTCG)
recombinant barcode read abundance (log10): 0.0665

CCTAAGACTTGGGTTCTAACCTGTTGCCC (site CCTAAGACTGG)
recombinant barcode read abundance (log10): 0.16

CCTAAGACTTGGGTTCTAACCTGTTGCCC (site CCTAAGACTTG)
recombinant barcode read abundance (log10): 0.0914

CCTAAGCCTTGGGTTCTAACCTGTTGCGT (site CCTAAACCTAC)
recombinant barcode read abundance (log10): 1.23

CCTAAGCCTTGGGTTCTAACCTGTTGCGT (site CCTAACCCTAC)
recombinant barcode read abundance (log10): 0.977

CCTAAGCCTTGGGTTCTAACCTGTTGCGT (site CCTAAGCCTAC)
recombinant barcode read abundance (log10): 1.21

CCTAAGCCTTGGGTTCTAACCTGTTGCGT (site CCTAATCCTAC)
recombinant barcode read abundance (log10): 0.161

CCTAAGCCTTGGGTTCTAACCTGTTGCTG (site CCTAAGCCTCA)
recombinant barcode read abundance (log10): 0.473

CCTAAGCCTTGGGTTCTAACCTGTTGCTG (site TACCCTTCTAC)
recombinant barcode read abundance (log10): 0.141

CCTAATACTTGGGTTCTAACCTGTTGCGT (site CCTAATACTAC)
recombinant barcode read abundance (log10): 0.988

CCTAATACTTGGGTTCTAACCTGTTGCGT (site CCTTAGACTAC)
recombinant barcode read abundance (log10): 0.0351

CCTAATCCTTGGGTTCTAACCTGTTGCGT (site CCTAAACCTAC)
recombinant barcode read abundance (log10): 0.0528

CCTAATCCTTGGGTTCTAACCTGTTGCGT (site CCTAACCCTAC)
recombinant barcode read abundance (log10): 0.295

CCTAATCCTTGGGTTCTAACCTGTTGCGT (site CCTAAGCCTAC)
recombinant barcode read abundance (log10): 0.22

CCTAATCCTTGGGTTCTAACCTGTTGCGT (site CCTAATCCTAC)
recombinant barcode read abundance (log10): 1.1

CCTACAACTTGGGTTCTAACCTGTTGCCT (site CCTACAACTAG)
recombinant barcode read abundance (log10): 0.313

CCTACAACTTGGGTTCTAACCTGTTGCCT (site CCTACACCTAG)
recombinant barcode read abundance (log10): 0.0313

CCTACAACTTGGGTTCTAACCTGTTGCCT (site CCTACAGCTAG)
recombinant barcode read abundance (log10): 0.138

CCTACAACTTGGGTTCTAACCTGTTGCCT (site CCTACATCTAG)
recombinant barcode read abundance (log10): 0.227

CCTACAGCTTGGGTTCTAACCTGTTGCCT (site CCTACAACTAG)
recombinant barcode read abundance (log10): 0.363

CCTACAGCTTGGGTTCTAACCTGTTGCCT (site CCTACACCTAG)
recombinant barcode read abundance (log10): 0.37

CCTACAGCTTGGGTTCTAACCTGTTGCCT (site CCTACAGCTAG)
recombinant barcode read abundance (log10): 0.532

CCTACAGCTTGGGTTCTAACCTGTTGCCT (site CCTACATCTAG)
recombinant barcode read abundance (log10): 0.0747

CCTACATCTTGGGTTCTAACCTGTTGCTA (site CCTACATCTAT)
recombinant barcode read abundance (log10): 0.177

CCTACATCTTGGGTTCTAACCTGTTGCTA (site CCTACATCTTA)
recombinant barcode read abundance (log10): 0.0332

CCTACGCCTTGGGTTCTAACCTGTTGCCA (site CCTACGCCTTG)
recombinant barcode read abundance (log10): 0.842

CCTACGCCTTGGGTTCTAACCTGTTGCCA (site TTCCGAGCTCT)
recombinant barcode read abundance (log10): 0

CCTACTACTTGGGTTCTAACCTGTTGCCG (site CCTACTACTCG)
recombinant barcode read abundance (log10): 0.0812

CCTACTACTTGGGTTCTAACCTGTTGCCG (site CCTACTCCTCT)
recombinant barcode read abundance (log10): 0.0358

CCTACTCCTTGGGTTCTAACCTGTTGCCT (site CCTACTCCTAG)
recombinant barcode read abundance (log10): 0.281

CCTACTCCTTGGGTTCTAACCTGTTGCCT (site CCTGCTCCTAA)
recombinant barcode read abundance (log10): 0.0634

CCTAGAGCTTGGGTTCTAACCTGTTGCCT (site CCTAGAACTAG)
recombinant barcode read abundance (log10): 0.097

CCTAGAGCTTGGGTTCTAACCTGTTGCCT (site CCTAGACCTAG)
recombinant barcode read abundance (log10): 0.241
